≈ marks a conversion by molar mass, not a printed value. Where two headings read alike, the source gives them in different places. A value given as a limit tells only on which side of the number the result lay.

The subject of one test is E. coli. The experiment in a line: microbe, parasite or virus in culture. The following applies: Escherichia coli. The test is classed as cell-based. As to the method:
(§1) In vitro activity, method of dilutions in liquid medium:
(§2) A series of test 96-well microtiter plates are prepared in which the same quantity of sterile nutritive medium is distributed. […] After 24 h of incubation in a 37° C. oven, growth inhibition is evaluated by transillumination, which makes it possible to determine the minimum inhibitory concentrations (MICS) expressed in μg/ml.

The next test concerns E. cloacae. The test can be described thus: MIC, dilutions in liquid medium, alone and combined with NXL105. The format is cell-based. The following applies: Enterobacter cloacae, AmpC, read-out: MIC. How it is done:
as §1, §2

In the next test the test system is K. pneumoniae. Described as above. The format is cell-based. The following applies: Klebsiella pneumoniae, read-out: MIC. As to the method: as §1, §2
The subject of the next test is C. freundii. The test is described as above. The test is classed as cell-based. To be noted: Citrobacter freundii, read-out: MIC.
Another test relates to K. oxytoca. The test is described as above. The format is cell-based. To be noted: Klebsiella oxytoca, read-out: MIC.
For a further test, the system named is E. aerogenes. The test is described as above. The test is classed as cell-based. To be noted: Klebsiella aerogenes, 24 h; E. aerogenes EAR2; Case-R + FEP-R; read-out: MIC.
The subject of test [1] is P. aeruginosa (391 HT2). The experiment in a line: MICs determined on microplates. The test is classed as cell-based, Pseudomonas aeruginosa. The following applies: Pseudomonas aeruginosa; sensitive strain P. aeruginosa 391 HT2. As to the method:
(§3) The minimum inhibitory concentrations (MICs) of the products to be tested (products alone and combinations) are determined in advance. • For each concentration of product to be tested as well as the control stock, an Erlenmeyer flask containing 18.5 ml Muller-Hinton medium (Ca^++) is prepared. • From an overnight culture in broth or a bacterial suspension of OD (optical density)=1, a 1/100 dilution is prepared. • The sample is cultured with agitation for 2 h at 37° C. • OD is measured: if >0.5, the sample is diluted to 1/10. • Each Erlenmeyer flask is inoculated with 1 ml of the agitated culture or its dilution. The initial inoculum should be 1×10^6 CFU/ml. • The various antibiotic solutions are added at a volume of 0.5 ml and 0.5 ml of medium in the control Erlenmeyer flask. • With a volume of 0.1 ml, the control Erlenmeyer flask is numbered=TO. • The flask is incubated at 37° C. with agitation. • At each sampling point (2, 4, 6, 24, 48 hours), a volume of 0.1 ml is sampled from each Erlenmeyer flask and numbered. • Plates for all the numbered samples are incubated (24 h-48 h) at 37° C.
Bactericidal activity was evaluated on a sensitive strain of P. aeruginosa (391 HT2)

Test [2] concerns P. aeruginosa (391 HT2). The experiment in a line: MICs in a volume of 10 ml, bactericidal conditions (exponential bacterial growth). The test is classed as cell-based, Pseudomonas aeruginosa. The following applies: Pseudomonas aeruginosa. As to the method:
as §3
For the bactericidal tests, MICs are determined in a volume of 10 ml-bactericidal conditions (exponential bacterial growth): […]

On to `C[C@H]1[C@H](NC(=O)/C(=N\OC(C)(C)C(=O)O)c2csc(N)n2)C(=O)N1S(=O)(=O)O` [Aztreonam], for which the MIC is 32 µg/mL with E. coli (24 h, E. coli 2138, KPC-2 + TEM-1); 4 µg/mL with E. coli (24 h, E. coli (no alias), CTX-M-15 + TEM-1 + OXA-1); more than 32 µg/mL in the test on E. coli (24 h, E. coli IND, VEB-1 + CMY-2); 8 µg/mL in the test with E. coli (24 h, E. coli TN06, CTX-M-2 + TEM-1); 16 µg/mL with E. coli (24 h, E. coli TN13, CTX-M-14 + CMY-2 + TEM-1); 32 µg/mL in the test with E. coli (24 h, E. coli Tunisie clone E4, CTX-M-16 + TEM-1). Also, the MIC in the test with E. coli (E. coli (no alias), Cephalosporinase, read-out: MIC) came out at 16 µg/mL (≈ 36.7 µM); against E. coli (E. coli (no alias), SHV-4), 16 µg/mL (≈ 36.7 µM); against E. coli (E. coli (no alias), TEM-3), 8 µg/mL (≈ 18.4 µM); in the test with E. cloacae (E. cloacae (no alias)) it was 16 µg/mL; with E. cloacae (E. cloacae), 16 µg/mL; in the test with K. pneumoniae (24 h, K. pneumoniae 60, SHV-2 + TEM-2 + PER), 16 µg/mL. Moreover, the MIC was 16 µg/mL with K. pneumoniae (24 h, K. pneumoniae 157, SHV-5 + TEM-26); 16 µg/mL with K. pneumoniae (24 h, K. pneumoniae 236, SHV-5 + TEM-10); 16 µg/mL with K. pneumoniae (24 h, K. pneumoniae 253, SHV-2 + TEM-12 + CTX-M-2); 4 µg/mL in the test with K. pneumoniae (24 h, K. pneumoniae 427, SHV-1 + TEM-1B + CTX-M-3); 16 µg/mL with K. pneumoniae (24 h, K. pneumoniae 441, SHV-1 + TEM-2 + PER); 8 µg/mL in the test with K. pneumoniae (24 h, K. pneumoniae 444, SHV-5 + TEM-2 + PER). In addition, the MIC with K. pneumoniae (24 h, K. pneumoniae 1734, FOX-3 + TEM-1) came out at 8 µg/mL; with K. pneumoniae (24 h, K. pneumoniae 9701, CMY-4 + TEM-1), 16 µg/mL; with K. pneumoniae (24 h, K. pneumoniae Patient 1BHR, VIM-4 + CTX-M-15 = CMY-4 + TEM-1), 16 µg/mL; with K. pneumoniae (24 h, K. pneumoniae SLK54, ACC-1 + TEM-1), 2 µg/mL; with K. pneumoniae (24 h, K. pneumoniae TN58467, DHA-1 + SHV-2a + TEM-1) it was 16 µg/mL; in the test with K. pneumoniae (ATCC700603, K. pneumoniae ATCC 700603, SHV-18), 8 µg/mL. Also, the MIC with K. pneumoniae (K. pneumoniae 26, SHV-5) was 16 µg/mL; in the test with K. pneumoniae (K. pneumoniae KP04, CTX-M-14) it was 16 µg/mL; with K. pneumoniae (K. pneumoniae VAKP, KPC-2), 16 µg/mL; in the test with C. freundii (24 h, C. freundii (no alias), AmpC + TEM-1), 16 µg/mL; in the test on C. freundii (C. freundii (no alias, table row r121), AmpC), 8 µg/mL; with C. freundii (C. freundii (no alias, table row r122), AmpC), 32 µg/mL. In addition, the MIC in the test with C. freundii (C. freundii (no alias, table row r123), AmpC) is 16 µg/mL; with C. freundii (C. freundii (no alias, table row r125), AmpC), 4 µg/mL; in the test with K. oxytoca (K. oxytoca 1431, TEM-129), more than 32 µg/mL; in the test with K. oxytoca (K. oxytoca 16944, OXY-2, TEM-1), 32 µg/mL; in the test on E. aerogenes, 16 µg/mL.

`O=C(O)c1cn(C2CC2)c2cc(N3CCNCC3)c(F)cc2c1=O` [Ciprofloxacine]: the MIC in the test on P. aeruginosa (391 HT2) [1] stood at 1 µg/mL.

Consider `NC[C@H]1O[C@H](O[C@H]2[C@H](O)[C@@H](O[C@H]3O[C@H](CO)[C@@H](O)[C@H](N)[C@H]3O)[C@H](N)C[C@@H]2N)[C@H](N)C[C@@H]1O` [Tobramycin], for which the MIC in the test with P. aeruginosa (391 HT2) [1] and in the test on P. aeruginosa (391 HT2) [2] was 1 µg/mL each time.

These data come from patent US20100092443A1, “NOVEL COMBINATIONS OF NITROGENATED HETEROCYCLIC ANTIBACTERIAL COMPOUNDS WITH OTHER ANTIBACTERIAL COMPOUNDS AND THE USE OF SAME AS DRUGS” (priority 2008, published 2010).
